Results taken from US4868321A, “Isothiocyanate intermediates” (FMC Corporation, priority 1988, dated 1989).

Assays:
Assay type in all cases: in vivo
Cotton [1] = experiment: Preemergence Herbicidal Activity, Cotton; conditions: Gossypium hirsutum, pre-emergence; for plant injury at 500 g/ha: 0.5 kg/ha
Method in brief: (§1)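 Applications are made pre- or postemergence from 50/50 acetone/water solutions of each compound. Effect is recorded as % C at the stated kg/ha rate.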

Soybean [2] = experiment: Preemergence Herbicidal Activity, Soybean; conditions: Glycine max, pre-emergence; for plant injury at 500 g/ha: 0.5 kg/ha
Method in brief: (§2)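 Application rate is expressed per hectare in kilograms. Values are percent control.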

Field Corn [3] = experiment: Preemergence Herbicidal Activity, Field Corn; conditions: Zea mays, pre-emergence; for plant injury at 500 g/ha: 0.5 kg/ha
Method in brief: as §2

Rice [4] = experiment: Preemergence Herbicidal Activity, Rice; conditions: Oryza sativa, pre-emergence; for plant injury at 500 g/ha: 0.5 kg/ha
Method in brief: as §2

Wheat [5] = experiment: Preemergence Herbicidal Activity, Wheat; conditions: Triticum aestivum, pre-emergence; for plant injury at 500 g/ha: 0.5 kg/ha
Method in brief: as §2

Field Bindweed [6] = experiment: Preemergence Herbicidal Activity, Field Bindweed; conditions: pre-emergence; for pest or weed control at 500 g/ha: 0.5 kg/ha
Method in brief: as §1

Morningglory [7] = experiment: Preemergence Herbicidal Activity, Morningglory; conditions: Ipomoea, pre-emergence; for pest or weed control at 500 g/ha: 0.5 kg/ha
Method in brief: as §1

Velvetleaf [8] = experiment: Preemergence Herbicidal Activity, Velvetleaf; conditions: Abutilon theophrasti, pre-emergence; for pest or weed control at 500 g/ha: 0.5 kg/ha
Method in brief: as §1

Barnyardgrass [9] = experiment: Preemergence Herbicidal Activity, Barnyardgrass; conditions: Echinochloa crus-galli, pre-emergence; for pest or weed control at 500 g/ha: 0.5 kg/ha
Method in brief: (§3)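 The reported numbers are percent control, obtained after treatment at rates quantified as kilograms per hectare.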

Green Foxtail [10] = experiment: Preemergence Herbicidal Activity, Green Foxtail; conditions: Setaria viridis, pre-emergence; for pest or weed control at 500 g/ha: 0.5 kg/ha
Method in brief: as §3

Johnsongrass [11] = experiment: Preemergence Herbicidal Activity, Johnsongrass; conditions: Sorghum halepense, pre-emergence; for pest or weed control at 500 g/ha: 0.5 kg/ha
Method in brief: as §3

Cotton [12] = experiment: Postemergence Herbicidal Activity, Cotton; conditions: Gossypium hirsutum, post-emergence; for plant injury at 500 g/ha: 0.5 kg/ha
Method in brief: as §1

Soybean [13] = experiment: Postemergence Herbicidal Activity, Soybean; conditions: Glycine max, post-emergence; for plant injury at 500 g/ha: 0.5 kg/ha
Method in brief: as §2

Field Corn [14] = experiment: Postemergence Herbicidal Activity, Field Corn; conditions: Zea mays, post-emergence; for plant injury at 500 g/ha: 0.5 kg/ha
Method in brief: as §2

Rice [15] = experiment: Postemergence Herbicidal Activity, Rice; conditions: Oryza sativa, post-emergence; for plant injury at 500 g/ha: 0.5 kg/ha
Method in brief: as §2

Wheat [16] = experiment: Postemergence Herbicidal Activity, Wheat; conditions: Triticum aestivum, post-emergence; for plant injury at 500 g/ha: 0.5 kg/ha
Method in brief: as §2

Field Bindweed [17] = experiment: Postemergence Herbicidal Activity, Field Bindweed; conditions: post-emergence; for pest or weed control at 500 g/ha: 0.5 kg/ha
Method in brief: as §1

Morningglory [18] = experiment: Postemergence Herbicidal Activity, Morningglory; conditions: Ipomoea, post-emergence; for pest or weed control at 500 g/ha: 0.5 kg/ha
Method in brief: as §1

Velvetleaf [19] = experiment: Postemergence Herbicidal Activity, Velvetleaf; conditions: Abutilon theophrasti, post-emergence; for pest or weed control at 500 g/ha: 0.5 kg/ha
Method in brief: as §1

Barnyardgrass [20] = experiment: Postemergence Herbicidal Activity, Barnyardgrass; conditions: Echinochloa crus-galli, post-emergence; for pest or weed control at 500 g/ha: 0.5 kg/ha
Method in brief: as §3

Green Foxtail [21] = experiment: Postemergence Herbicidal Activity, Green Foxtail; conditions: Setaria viridis, post-emergence; for pest or weed control at 500 g/ha: 0.5 kg/ha
Method in brief: as §3

Johnsongrass [22] = experiment: Postemergence Herbicidal Activity, Johnsongrass; conditions: Sorghum halepense, post-emergence; for pest or weed control at 500 g/ha: 0.5 kg/ha
Method in brief: as §3

With `CS(=O)(=O)Nc1cc(-n2nnn(CCCF)c2=O)c(F)cc1Br` [Compound 33, 1-[4-Bromo-2-fluoro-5-(N--methylsulfonylamino)phenyl]-1,4-dihydro-(3-fluoropropyl)-5H--tetrazol-5-one] the plant injury at 250 g/ha (Cotton [1]; 0.25 kg/ha) was 100%, the plant injury at 250 g/ha (Soybean [2]; 0.25 kg/ha) was 10% and the plant injury at 250 g/ha (Field Corn [3]; 0.25 kg/ha) was 40%. For the same compound, the plant injury at 250 g/ha (Rice [4]; 0.25 kg/ha) was 80%, the plant injury at 250 g/ha (Wheat [5]; 0.25 kg/ha) was 20% and the pest or weed control at 250 g/ha (Field Bindweed [6]; 0.25 kg/ha) was 100%. It also gave a pest or weed control at 250 g/ha (Morningglory [7]; 0.25 kg/ha) of 100%, a pest or weed control at 250 g/ha (Velvetleaf [8]; 0.25 kg/ha) of 100% and a pest or weed control at 250 g/ha (Barnyardgrass [9]; 0.25 kg/ha) of 95%. The pest or weed control at 250 g/ha (Green Foxtail [10]; 0.25 kg/ha) was 70%, the pest or weed control at 250 g/ha (Johnsongrass [11]; 0.25 kg/ha) was 70% and the plant injury at 250 g/ha (Cotton [12]; 0.25 kg/ha) was 100%. For the same compound, the plant injury at 250 g/ha (Soybean [13]; 0.25 kg/ha) was 70%, the plant injury at 250 g/ha (Field Corn [14]; 0.25 kg/ha) was 30% and the plant injury at 250 g/ha (Rice [15]; 0.25 kg/ha) was 80%. The plant injury at 250 g/ha (Wheat [16]; 0.25 kg/ha) was 40%, the pest or weed control at 250 g/ha (Field Bindweed [17]; 0.25 kg/ha) was 100% and the pest or weed control at 250 g/ha (Morningglory [18]; 0.25 kg/ha) was 100%. For the same compound, the pest or weed control at 250 g/ha (Velvetleaf [19]; 0.25 kg/ha) was 100%, the pest or weed control at 250 g/ha (Barnyardgrass [20]; 0.25 kg/ha) was 80% and the pest or weed control at 250 g/ha (Green Foxtail [21]; 0.25 kg/ha) was 100%. It also gave a pest or weed control at 250 g/ha (Johnsongrass [22]; 0.25 kg/ha) of 70%.
In the case of `CCCS(=O)(=O)N(c1cc(-n2nnn(CCCF)c2=O)c(F)cc1F)S(=O)(=O)CCC` [Compound 25], the plant injury at 500 g/ha (Cotton [1]) is reported as 10%, the plant injury at 500 g/ha (Soybean [2]) is reported as 20% and the plant injury at 500 g/ha (Field Corn [3]) is reported as 80%. For the same compound, the plant injury at 500 g/ha (Rice [4]) was 20%, the plant injury at 500 g/ha (Wheat [5]) was 20% and the pest or weed control at 500 g/ha (Field Bindweed [6]) was 0%. For the same compound, the pest or weed control at 500 g/ha (Morningglory [7]) was 10%, the pest or weed control at 500 g/ha (Velvetleaf [8]) was 20% and the pest or weed control at 500 g/ha (Barnyardgrass [9]) was 50%. It also gave a pest or weed control at 500 g/ha (Green Foxtail [10]) of 10%, a pest or weed control at 500 g/ha (Johnsongrass [11]) of 60% and a plant injury at 500 g/ha (Cotton [12]) of 40%. It also gave a plant injury at 500 g/ha (Soybean [13]) of 20%, a plant injury at 500 g/ha (Field Corn [14]) of 60% and a plant injury at 500 g/ha (Rice [15]) of 20%. For the same compound, the plant injury at 500 g/ha (Wheat [16]) was 20%, the pest or weed control at 500 g/ha (Field Bindweed [17]) was 40% and the pest or weed control at 500 g/ha (Morningglory [18]) was 30%. It also gave a pest or weed control at 500 g/ha (Velvetleaf [19]) of 80%, a pest or weed control at 500 g/ha (Barnyardgrass [20]) of 20% and a pest or weed control at 500 g/ha (Green Foxtail [21]) of 30%. For the same compound, the pest or weed control at 500 g/ha (Johnsongrass [22]) was 20%.
In the case of `CCS(=O)(=O)N(c1cc(-n2nnn(CCCF)c2=O)c(F)cc1F)S(=O)(=O)CC` [Compound 20, 1-(2,4-difluoro-5-[bis(N--ethylsulfonyl)amino]phenyl]-1,4-dihydro-4-(3-fluoropropyl)-5H--tetrazol-5-one], the plant injury at 500 g/ha (Cotton [1]) is reported as 90%, the plant injury at 500 g/ha (Soybean [2]) is reported as 20% and the plant injury at 500 g/ha (Field Corn [3]) is reported as 90%. The plant injury at 500 g/ha (Rice [4]) was 70%, the plant injury at 500 g/ha (Wheat [5]) was 30% and the pest or weed control at 500 g/ha (Field Bindweed [6]) was 20%. The pest or weed control at 500 g/ha (Morningglory [7]) was 70%, the pest or weed control at 500 g/ha (Velvetleaf [8]) was 100% and the pest or weed control at 500 g/ha (Barnyardgrass [9]) was 90%. The pest or weed control at 500 g/ha (Green Foxtail [10]) was 95%, the pest or weed control at 500 g/ha (Johnsongrass [11]) was 90% and the plant injury at 500 g/ha (Cotton [12]) was 90%. It also gave a plant injury at 500 g/ha (Soybean [13]) of 30%, a plant injury at 500 g/ha (Field Corn [14]) of 20% and a plant injury at 500 g/ha (Rice [15]) of 20%. The plant injury at 500 g/ha (Wheat [16]) was 50%, the pest or weed control at 500 g/ha (Field Bindweed [17]) was 30% and the pest or weed control at 500 g/ha (Morningglory [18]) was 90%. The pest or weed control at 500 g/ha (Velvetleaf [19]) was 100%, the pest or weed control at 500 g/ha (Barnyardgrass [20]) was 30% and the pest or weed control at 500 g/ha (Green Foxtail [21]) was 40%. It also gave a pest or weed control at 500 g/ha (Johnsongrass [22]) of 30%.
